Values quoted from earlier work as cited in patent US20040235935A1, “Oral pharmaceutical composition containing a statin derivative” (priority 2001, published 2004).
Converted amounts (≈) assume the structure as drawn. Where two headings read alike, the source gives them in different places.

Experiments:
[1] = for Vsol = volume of water required to completely dissolve a 20 mg dose: solubility at pH 5
[2] = not given; remark: listed apart in the source
[3] = not given; remark: listed apart in the source
[4] = healthy humans, oral dose 20 mg
[5] = healthy humans, oral dose 40 mg

| AUC = area under plasma concentration-time curve [4] [ng·h/mL] | Cmax = maximum plasma drug concentration [4] [ng/mL] | pKa [2] | Vsol = volume of water required to completely dissolve a 20 mg dose [1] | Solubility in water ([1]; at pH 5) [µg/mL] | Compound | other results |
| --- | --- | --- | --- | --- | --- | --- |
| – | – | – | 15 385 ml | 1.3 (≈ 3.21 µM) | CC[C@H](C)C(=O)O[C@H]1C[C@@H](C)C=C2C=C[C@H](C)[C@H](CC[C@@H]3C[C@@H](O)CC(=O)O3)[C@H]21 [Lovastatin Lactone, lovastatin] | D = partition coefficient (logarithm of partition ratio between octanol and water at pH 7) ([3]; pH 7): 4.3 |
| 90.2 | 38.4 | 5.5 | – | 300000 (≈ 707000 µM) | CC[C@H](C)C(=O)O[C@H]1C[C@H](O)C=C2C=C[C@H](C)[C@H](CC[C@@H](O)C[C@@H](O)CC(=O)O)[C@H]21 [Pravastatin Hydroxy acid, pravastatin] | EH = liver extraction ratio (healthy humans): 45%; fa = fraction of the administered dose absorbed (healthy humans): ˜34% |
| – | – | – | 111 mL | 180 (≈ 443 µM) | CC[C@H](C)C(=O)O[C@H]1C[C@H](O)C=C2C=C[C@H](C)[C@H](CC[C@@H]3C[C@@H](O)CC(=O)O3)[C@H]21 [Pravastatin Lactone] | – |

More lines, now with the values behind:

| Compound | AUC = area under plasma concentration-time curve [4] [ng·h/mL] | Cmax = maximum plasma drug concentration [4] [ng/mL] | pKa [2] | Vsol = volume of water required to completely dissolve a 20 mg dose [1] | Solubility in water ([1]; at pH 5) [µg/mL] | other results |
| --- | --- | --- | --- | --- | --- | --- |
| CC(C)n1c(/C=C/C(O)CC(O)CC(=O)O)c(-c2ccc(F)cc2)c2ccccc21 (stereo not drawn) [Fluvastatin, fluvastatin] | 167 | 181 | 5.5 | – | – | Peff = effective membrane permeability (healthy humans): 240 ×10⁻⁶ cm/s; F = bioavailability (healthy humans, oral): 10-35%; Solubility in water ([1]; at pH 6): 2000 µg/mL (≈ 4860 µM) |
| CCC(C)C(=O)OC1CC(C)C=C2C=CC(C)C(CCC(O)CC(O)CC(=O)[O-])C21.[Na+] (stereo not drawn) [Lovastatin Hydroxy acid] | – | – | 5.5 | – | – | tmax = time to Cmax (human, in vivo, po, 20 mg): 2.8 h; fa = fraction of the administered dose absorbed (in vivo): ˜31% |
| CCC(C)(C)C(=O)O[C@H]1C[C@@H](C)C=C2C=C[C@H](C)[C@H](CC[C@@H](O)C[C@@H](O)CC(=O)O)[C@H]21 [Simvastatin Hydroxy acid] | – | – | 5.5 | – | – | AUC = area under plasma concentration-time curve [5]: 58.1 ng·h/mL; Cmax = maximum plasma drug concentration [5]: 58.1 ng/mL; times more readily dissolved in octanol than in water ([3]; from the partition coefficients at pH 7): 126 times |
